Experimental data published in publication PMC9340768 (Journal of Medicinal Chemistry, 2022).
Starred links: 1 amine or outer side, 2 acyl side, 3 side chain; linkers in the order of their positions; H or OH if unused. Positions of bridges follow the written chain, without caps; N, C: chain ends. Non-standard residues stand in square brackets, D forms with d. Residues, ends and D or L forms follow the SMILES beside them. Chains are numbered I, II in the order given. TATA = O=C(CC[*:1])N1CN(C(=O)CC[*:2])CN(C(=O)CC[*:3])C1; X1 = O=C(CCc1cn(CCOCCOCCOCCOCCOCCC(=O)[*:2])nn1)[*:1]; 1Nal = N[C@@H](Cc1cccc2ccccc12)C(=O)O; Hyp = O=C(O)[C@@H]1C[C@@H](O)CN1; hArg = N=C(N)NCCCC[C@H](N)C(=O)O; tBuAla = CC(C)(C)C[C@H](N)C(=O)O; Nle = CCCC[C@H](N)C(=O)O

Target: CD137 (Homo sapiens, UniProt Q07011+Q96NY8)
Experiment: HT1376/CD137 reporter coculture assay
Type: cell-based

CD137, sequence (Q07011 24-255): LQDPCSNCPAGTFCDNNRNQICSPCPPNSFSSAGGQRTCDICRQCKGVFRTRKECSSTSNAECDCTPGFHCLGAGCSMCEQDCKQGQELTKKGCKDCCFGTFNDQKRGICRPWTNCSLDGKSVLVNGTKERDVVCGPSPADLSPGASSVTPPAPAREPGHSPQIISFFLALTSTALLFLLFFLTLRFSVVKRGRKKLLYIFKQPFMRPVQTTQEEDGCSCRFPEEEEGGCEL
CD137, sequence (Q96NY8 32-510): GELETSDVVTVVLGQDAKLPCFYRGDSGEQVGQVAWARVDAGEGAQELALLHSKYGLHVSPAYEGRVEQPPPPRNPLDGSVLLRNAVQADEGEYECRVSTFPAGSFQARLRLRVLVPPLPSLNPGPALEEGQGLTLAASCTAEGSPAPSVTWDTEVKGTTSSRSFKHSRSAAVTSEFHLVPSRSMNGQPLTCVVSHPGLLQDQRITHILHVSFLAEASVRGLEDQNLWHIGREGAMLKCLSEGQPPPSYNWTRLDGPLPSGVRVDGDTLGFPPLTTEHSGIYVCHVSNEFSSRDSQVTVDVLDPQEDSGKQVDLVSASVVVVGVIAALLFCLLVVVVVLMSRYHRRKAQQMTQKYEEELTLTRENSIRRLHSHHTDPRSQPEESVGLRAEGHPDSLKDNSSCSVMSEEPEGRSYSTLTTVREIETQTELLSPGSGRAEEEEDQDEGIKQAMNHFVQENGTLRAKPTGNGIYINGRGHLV

Structure (SMILES): CCCC[C@@H]1NC(=O)[C@H](Cc2ccc(O)cc2)NC(=O)[C@@H]2CCCN2C(=O)[C@H](CC(=O)O)NC(=O)[C@H](C)NC(=O)[C@H](Cc2ccccc2)NC(=O)[C@@H]2CSCCC(=O)N3CN(CN(C3)C(=O)CCSC[C@@H](C(=O)N[C@@H](C)C(N)=O)NC1=O)C(=O)CCSC[C@H](NC(C)=O)C(=O)N[C@@H](CC(C)(C)C)C(=O)N1CCC[C@H]1C(=O)N[C@@H](CCC(=O)O)C(=O)N[C@H](CCCCNC(=O)CCc1cn(CCOCCOCCOCCOCCOCCC(=O)NCCCC[C@H]3NC(=O)[C@H](Cc4cccc5ccccc45)NC(=O)[C@@H]4CCCN4C(=O)[C@@H](NC(C)=O)CSCCC(=O)N4CN5CN(C4)C(=O)CCSC[C@H](NC3=O)C(=O)N[C@@H](CCSC)C(=O)N[C@@H](CCCCNC(=N)N)C(=O)N[C@@H](Cc3c[nH]cn3)C(=O)N[C@@H](Cc3c[nH]c4ccccc34)C(=O)N[C@@H](CO)C(=O)N[C@@H]([C@@H](C)O)C(=O)N3CCC[C@H]3C(=O)N3C[C@H](O)C[C@H]3C(=O)N[C@@H](Cc3c[nH]c4ccccc34)C(=O)N[C@H](C(N)=O)CSCCC5=O)nn1)C(=O)N1CCC[C@H]1C(=O)N[C@@H](Cc1ccc(O)cc1)C(=O)N2 [BCY12579] (I: Ac-C[tBuAla]PE[dK]PYCFADPY[Nle]CA-NH2 / II: Ac-CP[1Nal][dK]CM[hArg]HWSTP[Hyp]WC-NH2; linker I:1-I:8-I:15, II:1-II:5-II:15 via TATA; linker I:5-II:4 via X1)
- improvement of EC50 (Nectin-4 affinity improved from BCY11858 to BCY12579): 12 fold

Structure (SMILES): CCCC[C@@H]1NC(=O)[C@H](Cc2ccc(O)cc2)NC(=O)[C@@H]2CCCN2C(=O)[C@H](CC(=O)O)NC(=O)[C@H](C)NC(=O)[C@H](Cc2ccccc2)NC(=O)[C@@H]2CSCCC(=O)N3CN(CN(C3)C(=O)CCSC[C@@H](C(=O)N[C@@H](C)C(N)=O)NC1=O)C(=O)CCSC[C@H](NC(C)=O)C(=O)N[C@@H](CC(C)(C)C)C(=O)N1CCC[C@H]1C(=O)N[C@@H](CCCCNC(=O)CCc1cn(CCOCCOCCOCCOCCOCCC(=O)N[C@H]3CSCCC(=O)N4CN5CN(C4)C(=O)CCSC[C@H](NC(=O)[C@@H](CC(=O)O)NC(=O)[C@H](Cc4cccc6ccccc46)NC(=O)[C@@H]4CCCN4C3=O)C(=O)N[C@@H](CCSC)C(=O)N[C@@H](CCCCNC(=N)N)C(=O)N[C@@H](CC(=O)O)C(=O)N[C@@H](Cc3c[nH]c4ccccc34)C(=O)N[C@@H](CO)C(=O)N[C@@H]([C@@H](C)O)C(=O)N3CCC[C@H]3C(=O)N3C[C@H](O)C[C@H]3C(=O)N[C@@H](Cc3c[nH]c4ccccc34)C(=O)N[C@H](C(N)=O)CSCCC5=O)nn1)C(=O)N[C@H](C)C(=O)N1CCC[C@H]1C(=O)N[C@@H](Cc1ccc(O)cc1)C(=O)N2 [BCY10571]
- EC50 relative to similar compounds (vs dLys4 (BCY10572) or C-terminal Dap (BCY10573) attachment): two- to threefold weaker

Structure (SMILES): CCCC[C@@H]1NC(=O)[C@H](Cc2ccc(O)cc2)NC(=O)[C@@H]2CCCN2C(=O)[C@H](CC(=O)O)NC(=O)[C@H](C)NC(=O)[C@H](Cc2ccccc2)NC(=O)[C@@H]2CSCCC(=O)N3CN(CN(C3)C(=O)CCSC[C@@H](C(=O)N[C@@H](CNC(=O)CCc3cn(CC(=O)N[C@H]4CSCCC(=O)N5CN6CN(C5)C(=O)CCSC[C@H](NC(=O)[C@@H](CC(=O)O)NC(=O)[C@H](Cc5cccc7ccccc57)NC(=O)[C@@H]5CCCN5C4=O)C(=O)N[C@@H](CCSC)C(=O)N[C@@H](CCCCNC(=N)N)C(=O)N[C@@H](CC(=O)O)C(=O)N[C@@H](Cc4c[nH]c5ccccc45)C(=O)N[C@@H](CO)C(=O)N[C@@H]([C@@H](C)O)C(=O)N4CCC[C@H]4C(=O)N4C[C@H](O)C[C@H]4C(=O)N[C@@H](Cc4c[nH]c5ccccc45)C(=O)N[C@H](C(N)=O)CSCCC6=O)nn3)C(N)=O)NC1=O)C(=O)CCSC[C@H](NC(C)=O)C(=O)N[C@@H](CC(C)(C)C)C(=O)N1CCC[C@H]1C(=O)N[C@@H](CCC(=O)O)C(=O)N[C@H](C)C(=O)N1CCC[C@H]1C(=O)N[C@@H](Cc1ccc(O)cc1)C(=O)N2 [BCY11375]
- improvement of EC50 (CD137 affinity improved from BCY9399 to BCY11375): 3.6 fold
